Measurements reported in the supplement of paper PMC11281043.
± gives the standard deviation of the averaged measurements.

Tests used:
[1] = tested on: Danio rerio embryo/larva; test: BMC edema; higher = less potent; conditions: max tested concentration (log10 uM): 2; exposure: 6-8 hpf to 5 dpf, scored at 6 dpf
In short: (§1)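 Two blinded assessors scored mortality (as % dead), hatching and malformations (as % of living larvae affected), without normalisation. The larvae came from wild-type zebrafish embryos with chorions, placed singly in wells of 200 μL 10% Hanks' at 6–8 hpf, given an 8-point half-log DMSO series (0.4% DMSO final), kept sealed at 26 °C with n = 6 per concentration, rinsed at 5 dpf and scored at 6 dpf. Benchmark concentration was fitted in tcpl, with bounded models chosen by lowest AIC. A benchmark response of 1.349 × baseline standard deviation was used.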

[2] = tested on: Danio rerio embryo/larva; test: BMC craniofacial defects; higher = less potent; conditions: max tested concentration (log10 uM): 2; exposure: 6-8 hpf to 5 dpf, scored at 6 dpf
Description: (§2)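 Zebrafish embryos (with chorion) were exposed from 6-8 hpf to each PFAS (8-point half-log series, top concentration up to 100 uM, 0.4% DMSO, sealed plates, 26 C; n = 6 embryos per concentration), rinsed at 5 dpf and scored at 6 dpf by two blinded observers for mortality, hatching and malformations. Endpoint scores are the % of living larvae affected (dead larvae excluded; […]). Curves were fitted with tcpl (cutoff 16%), and the BMC is the concentration at a benchmark response of 21.6%.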

[3] = tested on: Danio rerio embryo/larva; test: BMC swim bladder non-inflation; higher = less potent; conditions: max tested concentration (log10 uM): 2; exposure: 6-8 hpf to 5 dpf, scored at 6 dpf
In short: as §1

[4] = tested on: Danio rerio embryo/larva; test: BMC spinal defects; higher = less potent; conditions: max tested concentration (log10 uM): 2; exposure: 6-8 hpf to 5 dpf, scored at 6 dpf
Description: as §2

[5] = tested on: Danio rerio embryo/larva; test: max % larvae unhatched across tested concentrations; max tested concentration (log10 uM): 2; higher = more toxic; conditions: exposure: 6-8 hpf to 5 dpf, scored at 6 dpf
[6] = tested on: Danio rerio embryo/larva; test: BMC blood pooling; max tested concentration (log10 uM): 2; higher = less potent; conditions: exposure: 6-8 hpf to 5 dpf, scored at 6 dpf
Description: as §2

[7] = tested on: Danio rerio embryo/larva; test: BMC abnormal position; higher = less potent; conditions: max tested concentration (log10 uM): 2; exposure: 6-8 hpf to 5 dpf, scored at 6 dpf
Description: as §2

[8] = tested on: Danio rerio embryo/larva; test: BMC any abnormality; max tested concentration (log10 uM): 2; higher = less potent; conditions: exposure: 6-8 hpf to 5 dpf, scored at 6 dpf
In short: as §1

[9] = tested on: Danio rerio embryo/larva; test: max % larvae with any abnormality across tested concentrations; max tested concentration (log10 uM): 2; higher = more toxic; extreme values may be limits of the assay; conditions: exposure: 6-8 hpf to 5 dpf, scored at 6 dpf
[10] = tested on: Danio rerio embryo/larva; test: max % larvae dead across tested concentrations; max tested concentration (log10 uM): 1.60206; higher = more toxic; extreme values may be limits of the assay; conditions: exposure: 6-8 hpf to 5 dpf, scored at 6 dpf
[11] = tested on: Danio rerio embryo/larva; test: max % larvae with any abnormality across tested concentrations; max tested concentration (log10 uM): 1.60206; higher = more toxic; extreme values may be limits of the assay; conditions: exposure: 6-8 hpf to 5 dpf, scored at 6 dpf
[12] = tested on: Danio rerio embryo/larva; test: max % larvae unhatched across tested concentrations; max tested concentration (log10 uM): 1.60206; higher = more toxic; conditions: exposure: 6-8 hpf to 5 dpf, scored at 6 dpf
[13] = tested on: Danio rerio embryo/larva; test: BMC any abnormality; max tested concentration (log10 uM): 1.60206; higher = less potent; conditions: exposure: 6-8 hpf to 5 dpf, scored at 6 dpf
Description: as §2

[14] = tested on: Danio rerio embryo/larva; test: BMC mortality; max tested concentration (log10 uM): 1.60206; higher = less potent; conditions: exposure: 6-8 hpf to 5 dpf, scored at 6 dpf
Description: as §2

[15] = tested on: Danio rerio embryo/larva; test: max % larvae dead across tested concentrations; max tested concentration (log10 uM): 2; higher = more toxic; extreme values may be limits of the assay; conditions: exposure: 6-8 hpf to 5 dpf, scored at 6 dpf
[16] = tested on: Danio rerio embryo/larva; test: max % larvae with any abnormality across tested concentrations; max tested concentration (log10 uM): 1.30103; higher = more toxic; extreme values may be limits of the assay; conditions: exposure: 6-8 hpf to 5 dpf, scored at 6 dpf
[17] = tested on: Danio rerio embryo/larva; test: max % larvae unhatched across tested concentrations; max tested concentration (log10 uM): 1.30103; higher = more toxic; conditions: exposure: 6-8 hpf to 5 dpf, scored at 6 dpf

Row | SMILES | max % larvae dead across tested concentrations [10] | max % larvae [11] | max % larvae unhatched across tested concentrations [12] | further results
1 | FC(F)(I)C(F)(F)C(F)(F)C(F)(F)C(F)(F)C(F)(F)I [1,6-Diiodoperfluorohexane] | – | – | – | BMC edema [1]: 6.97 ± 5.2 µM; BMC craniofacial defects [2]: 26.4 ± 3.9 µM; BMC swim bladder non-inflation [3]: 6.49 ± 3.8 µM; BMC spinal defects [4]: 7.34 µM; max % larvae unhatched across tested concentrations [5]: 0%; BMC blood pooling [6]: 14.5 ± 16 µM; BMC abnormal position [7]: 14.9 ± 17 µM; BMC any abnormality [8]: 5.18 ± 4.7 µM; max % larvae [9]: 100%
2 | CCCCCCCCC(F)(F)C(F)(F)C(F)(F)C(F)(F)C(F)(F)C(F)(F)F [1-(Perfluorohexyl)octane] | 0% | 0% | 0% | –
3 | FC(F)(F)C(F)(F)C(F)(F)C(F)(F)C(F)(F)C(F)(F)C(F)(F)CCI [1-Iodo-1H,1H,2H,2H-perfluorononane] | 16.7% | 16.7% | 0% | –
4 | NCC(F)(F)C(F)(F)C(F)(F)C(F)(F)C(F)(F)C(F)(F)C(F)(F)C(F)(F)F [1H,1H-Perfluorononylamine] | 66.7% | 100% | 0% | BMC any abnormality [13]: 27.2 µM; BMC mortality [14]: 29.9 µM
5 | O=S(=O)(OCC(F)(F)F)C(F)(F)C(F)(F)C(F)(F)C(F)(F)F [2,2,2-Trifluoroethyl perfluorobutanesulfonate] | – | – | – | BMC edema [1]: 32.7 µM; max % larvae dead across tested concentrations [15]: 0%; BMC swim bladder non-inflation [3]: 77 µM; max % larvae unhatched across tested concentrations [5]: 0%; BMC blood pooling [6]: 35.5 µM; BMC any abnormality [8]: 29.4 µM; max % larvae [9]: 95.5%
6 | FC(F)(F)C(F)(F)C(F)(F)C(F)(F)C(F)(F)C(F)(F)CCS [2-(Perfluorohexyl)ethanethiol] | 0% | 16.7% | 0% | –
7 | FC(F)(F)C(F)(F)C(F)(F)C(F)(F)C(F)(F)C(F)(F)C(F)(F)C(F)(F)CCS [2-(Perfluorooctyl)ethanthiol] | 0% | 10.4% | 0% | –
8 | FC(F)(F)C(F)(C(F)(F)F)C(F)(F)C(F)(F)CC1CO1 (stereo unspecified) [3-(Perfluoro-3-methylbutyl)-1,2-propenoxide] | 0% | 0% | 0% | –
9 | OCC(F)(F)C(F)(F)C(F)(F)C(F)(F)C(F)(F)C(F)(F)C(F)(F)C(F)(F)C(F)(F)C(F)(F)C(F)(F)F [11:1 Fluorotelomer alcohol] | – | – | – | max % larvae [16]: 8.33%; max % larvae unhatched across tested concentrations [17]: 0%
10 | C=C(C)C(=O)OCC(F)(F)C(F)(F)C(F)(F)C(F)(F)C(F)(F)C(F)(F)C(F)(F)F [(Perfluoroheptyl)methyl methacrylate] | 0% | 0% | 0% | –
